Source: US8378104B2 (OSI Pharmaceuticals, LLC, priority 2010, dated 2013)
Where a name gives a salt, the structure may show the parent alone.

Assays:
TAK1-TAB1 fusion protein = target: T1, TAK1-TAB1 fusion protein (Homo sapiens, UniProt O43318); assay: TAK1 biochemical assay (AlphaScreen, GST-MAP2K7 substrate); conditions: TAK1-TAB1 fusion protein, GST-MAP2K7 substrate; read-out: mean TAK1 IC50 (Col. A)
T1 construct: purchased Carna
T1 sequence (O43318 with tags, fused parts or gaps limits assumed): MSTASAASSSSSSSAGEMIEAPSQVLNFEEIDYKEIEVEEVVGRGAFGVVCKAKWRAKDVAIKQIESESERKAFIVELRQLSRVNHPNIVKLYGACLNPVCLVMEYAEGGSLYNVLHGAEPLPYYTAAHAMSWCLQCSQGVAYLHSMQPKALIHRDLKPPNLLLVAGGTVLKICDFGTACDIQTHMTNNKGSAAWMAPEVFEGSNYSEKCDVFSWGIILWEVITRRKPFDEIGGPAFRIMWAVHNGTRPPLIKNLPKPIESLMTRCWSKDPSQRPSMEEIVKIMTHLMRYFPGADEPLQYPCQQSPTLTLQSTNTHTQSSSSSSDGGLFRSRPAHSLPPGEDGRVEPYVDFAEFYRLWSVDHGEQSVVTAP

pJNK in HCT-116 cells = assay: Phospho-JNK (Thr183/Tyr185) Meso Scale ELISA assay, TNFα-stimulated HCT-116 cells; format: cell-based; conditions: Homo sapiens, read-out: mean HCT-116 pJNK ELISA IC50 (Col. B)
Outline: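 Meso Scale ELISA read of phospho-JNK (Thr183/Tyr185) in lysed HCT-116 cells. Cells were serum-reduced to 1% FCS for 2 hours, exposed to test drug for 4 hrs at 37° C, then given 10 ng/mL TNFα (final) for 10 minutes before lysis.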

p-p38 in HCT-116 cells = assay: Phospho-p38 Meso Scale ELISA assay, TNFα-stimulated HCT-116 cells; format: cell-based; conditions: Homo sapiens, read-out: mean HCT-116 p-p38 ELISA IC50 (Col. C)
Outline: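 Phospho-p38 measured by Meso Scale ELISA on diluted lysates, captured overnight at 4° C. Before lysis, HCT-116 cells were serum-reduced (1% FCS, 2 h), treated with compounds 4 h at 37° C and stimulated 10 min with 10 ng/mL TNFα final.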

IC50 (TAK1-TAB1 fusion protein) [µM] | IC50 (pJNK in HCT-116 cells) [µM] | IC50 (p-p38 in HCT-116 cells) [µM] | SMILES
0.1 to 1 | < 0.1 | 0.1 to 1 | Nc1ncc(-c2cnn([C@H]3CC[C@H](O)CC3)c2)c2cc(-c3cncc4cnsc34)oc12 [Example 267, trans-4-{4-[7-amino-2-([1,2]thiazolo[4,5-c]pyridin-7-yl)furo[2,3-c]pyridin-4-yl]-1H-pyrazol-1-yl}cyclohexanol Diformate Salt]
0.1 to 1 | < 0.1 | 0.1 to 1 | Nc1ncc(-c2cnn(C3CCN(CCF)CC3)c2)c2cc(-c3cccc4cnccc34)oc12 [Example 83, 4-{1-[1-(2-fluoroethyl)piperidin-4-yl]-1H-pyrazol-4-yl}-2-(isoquinolin-5-yl)furo[2,3-c]pyridin-7-amine]
0.1 to 1 | 0.1 to 1 | 1 to 10 | CC(=O)N1CCC(n2cc(-c3cnc(N)c4oc(-c5cnc6[nH]ccc6c5)cc34)cn2)CC1 [Example 155, 1-(4-{4-[7-amino-2-(1H-pyrrolo[2,3-b]pyridin-5-yl)furo[2,3-c]pyridin-4-yl]-1H-pyrazol-1-yl}piperidin-1-yl)ethanone]
1 to 10 | 1 to 10 | 1 to 10 | CSc1cccc(-c2cc3c(-c4cnn(C5CCN(C(C)=O)CC5)c4)cnc(N)c3o2)c1 [Example 133, 1-[4-(4-{7-amino-2-[3-(methylsulfanyl)phenyl]furo[2,3-c]pyridin-4-yl}-1H-pyrazol-1-yl)piperidin-1-yl]ethanone]
< 0.1 | 0.1 to 1 | 1 to 10 | CC(=O)N1CCC(n2cc(-c3cnc(N)c4oc(-c5c(C)sc6cnccc56)cc34)cn2)CC1 [Example 253, 1-(4-{4-[7-amino-2-(2-methylthieno[2,3-c]pyridin-3-yl)furo[2,3-c]pyridin-4-yl]-1H-pyrazol-1-yl}piperidin-1-yl)ethanone trifluoroacetate]
0.1 to 1 | 0.1 to 1 | 1 to 10 | CC(=O)N1CCC(n2cc(-c3cnc(N)c4oc(-c5cccc(CO)c5)cc34)cn2)CC1 [Example 169, 1-[4-(4-{7-amino-2-[3-(hydroxymethyl)phenyl]furo[2,3-c]pyridin-4-yl}-1H-pyrazol-1-yl)piperidin-1-yl]ethanone]
0.1 to 1 | 0.1 to 1 | 0.1 to 1 | CS(=O)(=O)CCN1CCC(n2cc(-c3cnc(N)c4oc(-c5cccc6cnccc56)cc34)cn2)CC1 [Example 82, 2-(isoquinolin-5-yl)-4-(1-{1-[2-(methylsulfonyl)ethyl]piperidin-4-yl}-1H-pyrazol-4-yl)furo[2,3-c]pyridin-7-amine]
< 0.1 | < 0.1 | < 0.1 | CNc1ncc(-c2cnn([C@H]3CC[C@H](O)CC3)c2)c2cc(-c3csc4cnccc34)oc12 [Example 281, trans-4-{4-[7-(methylamino)-2-(thieno[2,3-c]pyridin-3-yl)furo[2,3-c]pyridin-4-yl]-1H-pyrazol-1-yl}cyclohexanol]
< 0.1 | 0.1 to 1 | < 0.1 | CC(C)n1cc(-c2cnc(N)c3oc(-c4c[nH]c5cnccc45)cc23)cn1 [Example 90, 4-[1-(propan-2-yl)-1H-pyrazol-4-yl]-2-(1H-pyrrolo[2,3-c]pyridin-3-yl)furo[2,3-c]pyridin-7-amine]

The remaining lines, values behind:

SMILES | IC50 (TAK1-TAB1 fusion protein) [µM] | IC50 (pJNK in HCT-116 cells) [µM] | IC50 (p-p38 in HCT-116 cells) [µM]
CC(=O)N1CCC(n2cc(-c3cnc(N)c4oc(-c5cccc6c5CC(=O)N6)cc34)cn2)CC1 [Example 227, 4-{4-[1-(1-acetylpiperidin-4-yl)-1H-pyrazol-4-yl]-7-aminofuro[2,3-c]pyridin-2-yl}-1,3-dihydro-2H-indol-2-one] | 0.1 to 1 | 1 to 10 | 1 to 10
CS(=O)(=O)N1CCC(n2cc(-c3cnc(N)c4oc(-c5cccc6cnccc56)cc34)cn2)CC1 [Example 80, 2-(isoquinolin-5-yl)-4-{1-[1-(methylsulfonyl)piperidin-4-yl]-1H-pyrazol-4-yl}furo[2,3-c]pyridin-7-amine] | 0.1 to 1 | < 0.1 | 0.1 to 1
Nc1ncc(-c2cnn(C3CCNCC3)c2)c2cc(-c3ccc4[nH][nH]c(=O)c4c3)oc12 [Example 55, 5-{7-amino-4-[1-(piperidin-4-yl)-1H-pyrazol-4-yl]furo[2,3-c]pyridin-2-yl}-1,2-dihydro-3H-indazol-3-one trifluoroacetic acid salt] | < 0.1 | > 10 | > 10
CC(=O)N1CCC(n2cc(-c3cnc(N)c4oc(-c5cccn6ccnc56)cc34)cn2)CC1 [Example 221, 1-(4-{4-[7-amino-2-(imidazo[1,2-a]pyridin-8-yl)furo[2,3-c]pyridin-4-yl]-1H-pyrazol-1-yl}piperidin-1-yl)ethanone bis(trifluoroacetate)] | 0.1 to 1 | 0.1 to 1 | 0.1 to 1
Nc1ncc(-c2cnn(C3CCNCC3)c2)c2cc(-c3ccc4[nH]ccc4c3)oc12 [Example 38, 2-(1H-indol-5-yl)-4-[1-(piperidin-4-yl)-1H-pyrazol-4-yl]furo[2,3-c]pyridin-7-amine] | 0.1 to 1 | 1 to 10 | 1 to 10
CC(=O)N1CCC(n2cc(-c3cnc(N)c4oc(-c5c[nH]c6cc(C#N)ccc56)cc34)cn2)CC1 [Example 222, 3-{4-[1-(1-acetylpiperidin-4-yl)-1H-pyrazol-4-yl]-7-aminofuro[2,3-c]pyridin-2-yl}-1H-indole-6-carbonitrile] | 0.1 to 1 | 0.1 to 1 | 0.1 to 1
Nc1ncc(-c2cnn([C@H]3CC[C@H](O)CC3)c2)c2cc(-c3csc4cnc(F)cc34)oc12 [Example 249, trans-4-{4-[7-amino-2-(5-fluorothieno[2,3-c]pyridin-3-yl)furo[2,3-c]pyridin-4-yl]-1H-pyrazol-1-yl}cyclohexanol] | < 0.1 | < 0.1 | < 0.1
Nc1ncc(-c2cnn([C@H]3CC[C@H](O)CC3)c2)c2cc(-c3cccc4cnccc34)oc12 [Example 65, trans-4-{4-[7-amino-2-(isoquinolin-5-yl)furo[2,3-c]pyridin-4-yl]-1H-pyrazol-1-yl}cyclohexanol] | 0.1 to 1 | < 0.1 | 0.1 to 1
Nc1ncc(-c2cnn(C3CCN(C(=O)C4CC4)CC3)c2)c2cc(-c3cccc4cnccc34)oc12 [Example 52, (4-{4-[7-amino-2-(isoquinolin-5-yl)furo[2,3-c]pyridin-4-yl]-1H-pyrazol-1-yl}piperidin-1-yl)(cyclopropyl)methanone] | 0.1 to 1 | 0.1 to 1 | 0.1 to 1
CC(=O)N1CCC(n2cc(-c3cnc(N)c4oc(-c5cccc6c5oc5ccccc56)cc34)cn2)CC1 [Example 93, 1-(4-{4-[7-amino-2-(dibenzo[b,d]furan-4-yl)furo[2,3-c]pyridin-4-yl]-1H-pyrazol-1-yl}piperidin-1-yl)ethanone] | > 10 | 1 to 10 | 1 to 10
CC(=O)c1cccc(-c2cc3c(-c4cnn(C5CCN(C(C)=O)CC5)c4)cnc(N)c3o2)c1 [Example 124, 1-(4-{4-[2-(3-acetylphenyl)-7-aminofuro[2,3-c]pyridin-4-yl]-1H-pyrazol-1-yl}piperidin-1-yl)ethanone] | 1 to 10 | 0.1 to 1 | 1 to 10
Nc1ncc(-c2cnn(C[C@@H](O)CO)c2)c2cc(-c3csc4cnccc34)oc12 [Example 317, (R)-3-[4-(7-amino-2-thieno[2,3-c]pyridin-3-yl-furo[2,3-c]pyridin-4-yl)-pyrazol-1-yl]-propane-1,2-diol] | < 0.1 | 1 to 10 | 1 to 10
Nc1ncc(-c2cnn(C3CNC3)c2)c2cc(-c3csc4cnccc34)oc12 [Example 314, 4-(1-azetidin-3-yl-1H-pyrazol-4-yl)-2-thieno[2,3-c]pyridin-3-yl-furo[2,3-c]pyridin-7-ylamine] | < 0.1 | 1 to 10 | 0.1 to 1
CC(=O)N1CCC(n2cc(-c3cnc(N)c4oc(-c5cc(C)c(O)c(C)c5)cc34)cn2)CC1 [Example 138, 1-(4-{4-[7-amino-2-(4-hydroxy-3,5-dimethylphenyl)furo[2,3-c]pyridin-4-yl]-1H-pyrazol-1-yl}piperidin-1-yl)ethanone] | 1 to 10 | 0.1 to 1 | 1 to 10
Nc1ncc(-c2cnn(C3CCNCC3)c2)c2cc(-c3ccc4[nH]ncc4c3)oc12 [Example 18, 2-(1H-indazol-5-yl)-4-[1-(piperidin-4-yl)-1H-pyrazol-4-yl]furo[2,3-c]pyridin-7-amine hydrochloride] | < 0.1 | 0.1 to 1 | 0.1 to 1
CC(=O)N1CCC(n2cc(-c3cnc(N)c4oc(-c5cccc6ccnn56)cc34)cn2)CC1 [Example 197, 1-(4-{4-[7-amino-2-(pyrazolo[1,5-a]pyridin-7-yl)furo[2,3-c]pyridin-4-yl]-1H-pyrazol-1-yl}piperidin-1-yl)ethanone] | 0.1 to 1 | 0.1 to 1 | 0.1 to 1
